The values below come from PMC12115342, “Preparation and Evaluation of Tadalafil-Loaded Nanoemulgel for Transdermal Delivery in Cold-Induced Vasoconstriction: A Potential Therapy for Raynaud’s Phenomenon” (Pharmaceutics, 2025).

The conditions of data set [1]: cited from earlier work.
On the set-up of data set [2]: method as in doi:10.1016/j.jddst.2022.103166. As to conditions: cited from earlier work.
Data set [3] in a line: Equilibrium solubility of TDL in oils, surfactants and cosurfactants. It counts as physicochemical. On the procedure: The equilibrium solubility of TDL in selected oils was measured by adding an excess quantity of the drug to 1 mL of oils (Miglyol® 812 N, Miglyol® 840, Miglyol® 829, triacetin, isopropyl myristate, castor oil, oleic acid, cinnamon oil, N-methyl pyrrolidone) separately in 1.5 mL stoppered glass vials and mixed by a vortex mixer. Samples were further placed at room temperature (25 ± 1 °C) on a shaker (Incu-Shaker, Benchmark Scientific, Edison, NJ, USA) at 180 rpm for 72 h. The mixture was further centrifuged for 15 min at 3000 rpm. The upper supernatant was removed, and the amount of drug was determined using UV analyzer (Jenway, Staffs, UK) at a lambda max of 284 nm. The data presented in Table 1 are the mean values and standard deviations (SDs) for each oil sample, based on three replicates.
The solubility screening of TDL in various surfactants (Tween 80, Span 80, Cremophor RH 40, PEG-400, propylene glycol, isopropyl alcohol, and Transcutol) was performed following the same procedure as the oil screening. The results presented in the article are the mean values and standard deviations (SDs) for surfactant and cosurfactant samples, based on three replicates.

The conditions of data set [4]: cited from earlier work. The source holds these as a separate data set.

Values after ≈ are worked out from the molar mass of the structure shown. Where two headings read alike, the source gives them in different places.

The solubility is how much of the substance goes into solution per volume. By half-life is commonly meant how long it takes for the measured level to halve.

In the case of `CN1CC(=O)N2[C@H](c3ccc4c(c3)OCO4)c3[nH]c4ccccc4c3C[C@@H]2C1=O` [Tadalafil], the water solubility in data set [1] is recorded as 3.2 µg/mL (≈ 8.22 µM). In addition, the solubility in water was 0.73 µg/mL (≈ 1.87 µM) in data set [1] (lower literature value) and 3.48 µg/mL (≈ 8.94 µM) in data set [1] (upper literature value). In addition, the log p in data set [2] is 2.89. Further, the solubility at 72 h in data set [3] (25 °C, oil or lipid, thermodynamic from solid, in Castor oil, 25 ± 1 °C, 72 h) was 450 ± 30 µg/mL (≈ 1160 µM); in data set [3] (25 °C, oil or lipid, thermodynamic from solid, in Cinnamon oil, 25 ± 1 °C, 72 h), 53600 ± 2580 µg/mL (≈ 138000 µM); in data set [3] (25 °C, oil or lipid, thermodynamic from solid, in Miglyol 812N, 25 ± 1 °C, 72 h), 330 ± 10 µg/mL (≈ 847 µM); in data set [3] (25 °C, oil or lipid, thermodynamic from solid, in Miglyol 829, 25 ± 1 °C, 72 h) it was 910 ± 140 µg/mL (≈ 2340 µM); in data set [3] (25 °C, oil or lipid, thermodynamic from solid, in Miglyol 840, 25 ± 1 °C, 72 h), 290 ± 10 µg/mL (≈ 745 µM); in data set [3] (25 °C, oil or lipid, thermodynamic from solid, in Oleic acid, 25 ± 1 °C, 72 h) it was 190 ± 10 µg/mL (≈ 488 µM). The solubility at 72 h in data set [3] (25 °C, oil or lipid, thermodynamic from solid, in Triacetin, 25 ± 1 °C, 72 h) stood at 3830 ± 70 µg/mL (≈ 9840 µM); in data set [3] (25 °C, organic solvent or mixture, thermodynamic from solid, in Isopropyl alcohol) it was 510 ± 10 µg/mL (≈ 1310 µM); in data set [3] (25 °C, organic solvent or mixture, thermodynamic from solid, in PEG-400) it was 14000 ± 1010 µg/mL (≈ 35900 µM); in data set [3] (25 °C, organic solvent or mixture, thermodynamic from solid, in Propylene glycol), 840 ± 50 µg/mL (≈ 2160 µM); in data set [3] (25 °C, organic solvent or mixture, thermodynamic from solid, in Transcutol), 33400 ± 1320 µg/mL (≈ 85700 µM); in data set [3] (25 °C, thermodynamic from solid, in Cremophor RH 40), 27600 ± 1230 µg/mL (≈ 70800 µM). Also, the solubility at 72 h in data set [3] (25 °C, thermodynamic from solid, in N-methyl pyrrolidone, 25 ± 1 °C, 72 h) is 325000 ± 4560 µg/mL (≈ 835000 µM); in data set [3] (25 °C, thermodynamic from solid, in Span 80), 170 ± 30 µg/mL (≈ 437 µM); in data set [3] (25 °C, thermodynamic from solid, in Tween 80) it was 280 ± 10 µg/mL (≈ 719 µM); in data set [3] (in Cremophor RH 40) it was about 27600 µg/mL (≈ 70800 µM); in data set [3] (in Transcutol), about 33400 µg/mL (≈ 85700 µM). Moreover, the half-life in data set [4] is 15 to 17 h.
As for `CCCc1nn(C)c2c(=O)[nH]c(-c3cc(S(=O)(=O)N4CCN(C)CC4)ccc3OCC)nc12` [sildenafil], the half-life in data set [4] is 3.8 h.
